The target of assay [1] is T1, Tyrosinase (Agaricus bisporus, UniProt O42713).
T1 sequence (O42713 whole entry): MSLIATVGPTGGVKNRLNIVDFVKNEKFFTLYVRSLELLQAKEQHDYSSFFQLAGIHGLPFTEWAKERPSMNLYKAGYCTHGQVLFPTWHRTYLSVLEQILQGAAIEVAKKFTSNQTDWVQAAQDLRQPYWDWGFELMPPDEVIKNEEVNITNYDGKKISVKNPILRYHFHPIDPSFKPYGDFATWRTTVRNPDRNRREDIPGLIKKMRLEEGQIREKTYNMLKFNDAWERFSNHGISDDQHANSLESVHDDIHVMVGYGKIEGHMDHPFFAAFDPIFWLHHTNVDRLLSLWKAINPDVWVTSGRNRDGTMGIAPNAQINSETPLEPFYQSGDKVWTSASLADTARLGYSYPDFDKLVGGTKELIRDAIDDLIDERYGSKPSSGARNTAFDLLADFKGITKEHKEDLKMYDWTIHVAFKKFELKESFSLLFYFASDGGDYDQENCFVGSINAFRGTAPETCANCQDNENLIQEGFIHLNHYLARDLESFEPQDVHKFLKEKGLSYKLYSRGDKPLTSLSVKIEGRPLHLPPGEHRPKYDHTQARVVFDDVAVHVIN
Description: Inhibition of mushroom tyrosinase using as L-DOPA substrate after 2 mins by spectrophotometric analysis

Assay [2] deals with T1, Tyrosinase. The source holds these as a separate data set.
For assay [3], the target named is T2, Tyrosinase (Agaricus bisporus) (UniProt O42713).
T2 sequence (whole entry): T1 sequence (O42713 whole entry)
As to the kind of experiment: Competitive inhibition of mushroom tyrosinase using L-tyrosine substrate by Lineweaver-Burk double reciprocal plot analysis.

The target in assay [4] is T2, Tyrosinase (Agaricus bisporus). As to the kind of experiment: Potency index, ratio IC50 for hydroquinone to compound against mushroom tyrosinase using as L-tyrosine substrate after 10 mins by spectrophotometric analysis.
For assay [5] the target is unchanged. As to the kind of experiment: Potency index, ratio IC50 for hydroquinone to compound against mushroom tyrosinase using as […] substrate after 10 mins by spectrophotometric analysis.
For assay [6] the target is unchanged. As to the kind of experiment: Potency index, ratio IC50 for ascorbic acid to compound against mushroom tyrosinase assessed as inhibition constant for compound-free enzyme using as L-tyrosine substrate by spectrophotometric analysis.
For assay [7], the target named is T1, Tyrosinase. Nature of the assay: Inhibition of mushroom tyrosinase assessed as inhibition constant for compound-enzyme-substrate complex using as […] substrate by spectrophotometric analysis.
The target in assay [8] is T2, Tyrosinase (Agaricus bisporus). Nature of the assay: Inhibition of mushroom tyrosinase assessed as lag time for L-tyrosine oxidation at 5.51 uM by spectrophotometric analysis.
For assay [9] the target is unchanged. Nature of the assay: Inhibition of mushroom tyrosinase assessed as reduction in reaction rate of L-tyrosine oxidation by spectrophotometric analysis.
Assay [10] addresses T1, Tyrosinase. The source holds these as a separate data set.
Description: Inhibition of mushroom tyrosinase using as L-tyrosine substrate after 10 mins by spectrophotometric analysis
The target in assay [11] is T1, Tyrosinase. Nature of the assay: Inhibition of mushroom tyrosinase assessed as inhibition constant for compound-free enzyme using as […] substrate by spectrophotometric analysis.
For assay [12], the target named is T2, Tyrosinase (Agaricus bisporus). Nature of the assay: Potency index, ratio IC50 for (Z,Z)-5-trideca-4,7-dienyl)-resorcinol to compound against mushroom tyrosinase assessed as inhibition constant for compound-free enzyme using as L-tyrosine substrate by spectrophotometric analysis.
Assay [13] has the same target. Nature of the assay: Noncompetitive inhibition of mushroom tyrosinase using […] substrate by Lineweaver-Burk double reciprocal plot analysis.
Assay [14] can be described thus: Metal chelating activity of the compound assessed as formation of copper complex at 84.66 uM after 1 min by UV-vis spectroscopy. The assay is classed as functional.
In assay [15] the target is T2, Tyrosinase (Agaricus bisporus). Nature of the assay: Potency index, ratio IC50 for kojic acid to compound against mushroom tyrosinase using as L-tyrosine substrate after 10 mins by spectrophotometric analysis.
The target is the same in assay [16]. Nature of the assay: Reversible inhibition of mushroom tyrosinase using L-tyrosine substrate by spectrophotometric analysis.
The target is the same in assay [17]. As to the kind of experiment: Reversible inhibition of mushroom tyrosinase using L-DOPA substrate by spectrophotometric analysis.
Assay [18] has the same target. As to the kind of experiment: […] mixed-I type inhibition of mushroom tyrosinase using L-tyrosine substrate by Lineweaver-Burk double reciprocal plot analysis.
In assay [19] the target is T1, Tyrosinase. Nature of the assay: Inhibition of mushroom tyrosinase assessed as inhibition constant for compound-free enzyme using as L-tyrosine substrate by spectrophotometric analysis.
Assay [20] has as its target T2, Tyrosinase (Agaricus bisporus). As to the kind of experiment: Potency index, ratio Ki for kojic acid to compound against mushroom tyrosinase assessed as inhibition constant for compound-free enzyme using as L-tyrosine substrate by spectrophotometric analysis.
For assay [21], the target named is T1, Tyrosinase. Nature of the assay: Inhibition of mushroom tyrosinase assessed as inhibition constant for compound-enzyme-substrate complex using as L-tyrosine substrate by spectrophotometric analysis.
Assay [22] deals with T2, Tyrosinase (Agaricus bisporus). As to the kind of experiment: Potency index, ratio IC50 for arbutin to compound against mushroom tyrosinase assessed as inhibition constant for compound-free enzyme using as L-tyrosine substrate by spectrophotometric analysis.
For assay [23] the target is unchanged. Nature of the assay: Potency index, ratio Ki for kojic acid to compound against mushroom tyrosinase diphenolase activity.

The structures appear in SMILES notation. pIC50, pKi: −log10 of the molar value. Active and inactive are the calls of the source. No cut-off for these calls is given here.

By pIC50 is commonly meant the negative decadic logarithm of the IC50, by convention in mol/L. A word on the pKi: it is −log10 of the Ki, conventionally taken in molar units.

Turning to `CCCCC/C=C\C/C=C\CCCc1cc(O)cc(O)c1`, the negative-log IC50 (pIC50) against Tyrosinase [1] was 4.29; at Tyrosinase [2], 5.77.

Take `CC1(C)C=Cc2c(cc3c(c2O)C(=O)CC(c2ccc(O)cc2O)O3)O1` (centres undefined) [DALENIN]: the inhibition entry in assay [3], in assay [9], in assay [13], in assay [16], in assay [17] and in assay [18] was “Active” in each case. The Ratio IC50 in [4] is 52; in assay [5], 59; in [6] it was 7; in assay [12], 3; in [15], 495; in assay [22], 285. In addition, the pIC50 against Tyrosinase [1] is 4.73; on Tyrosinase [10], 6.59. In addition, the pKi on Tyrosinase [7] was 3.80; at Tyrosinase [11] it was 3.80; at Tyrosinase [19], 5.70; on Tyrosinase [21], 5.12. In addition, the TIME in assay [8] turned out to be 0.167 h. Moreover, in assay [14], the result was Active. Also, the Ratio Ki worked out at 15 in [20] and 8 in assay [23].

For `O=C1CC(c2ccc(O)cc2O)Oc2cc(O)cc(O)c21` (centres undefined) [STEPPOGENIN], the results for the pIC50 against Tyrosinase [1] and against Tyrosinase [10] were 4.58 and 5.89, respectively.

Regarding `Oc1ccc(O)cc1` [HYDROQUINONE], the pIC50 against Tyrosinase [1] was 2.96; on Tyrosinase [10] it was 4.87.

The compound `O=S([O-])O.[Na+]` [SODIUM BISULFITE] showed a negative-log IC50 (pIC50) on Tyrosinase [2] of 3.68.

The values above are taken from ChEMBL document CHEMBL2146462, “Tyrosinase inhibitory activity of a 6-isoprenoid-substituted flavanone isolated from Dalea elegans” (Bioorg Med Chem, 2011).
